Values joined by “and” are separate entries in the source; they are usually repeats but may differ in a detail not shown here. Equal values may be shown once.
Assays:
MKK7 = target: T1, MKK7 (Homo sapiens, UniProt O14733); test: In vitro kinase activity assay for MKK7 (Nanosyn); format: biochemical; conditions: read-out: MKK7 IC50 in vitro
T1 construct: purchased Nanosyn (contract assay)
T1 sequence (O14733 1-419): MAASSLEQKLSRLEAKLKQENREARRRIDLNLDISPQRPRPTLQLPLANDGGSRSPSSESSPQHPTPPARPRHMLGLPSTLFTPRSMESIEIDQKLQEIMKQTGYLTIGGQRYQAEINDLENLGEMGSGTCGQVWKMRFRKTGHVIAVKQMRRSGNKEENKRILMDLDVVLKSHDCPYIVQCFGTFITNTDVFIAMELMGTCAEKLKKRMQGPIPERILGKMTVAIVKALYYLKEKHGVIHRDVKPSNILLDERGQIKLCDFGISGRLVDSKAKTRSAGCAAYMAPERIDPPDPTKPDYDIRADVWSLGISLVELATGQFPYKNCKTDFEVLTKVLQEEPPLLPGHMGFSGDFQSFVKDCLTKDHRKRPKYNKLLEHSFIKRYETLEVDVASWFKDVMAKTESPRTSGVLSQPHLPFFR
Protocol: Based on visual inspection of the top 500 predictions, 10 compounds were selected for synthesis and testing (see, Table 1). The “Docking rank” is given in its respective run, whereas four virtual libraries of acrylamides were docked separately, based on the amine precursor for the acrylamide (primary or secondary aliphatic amines, primary or secondary aromatic amines). In vitro kinase activity assay was carried out by Nanosyn, as described below.
In Vitro Activity Assays for MKK7 or MKK4 (Carried by Nanosyn):
Exemplary test compounds, according to some embodiments of the present invention, were diluted in DMSO to a final concentration that ranged from 10 μM to 0.0565 nM, while final concentration of DMSO in all assays was kept at 1%. Reference compound, Staurosporine, was tested in a similar manner. […] After incubation, activity of now activated JNK1 was tested in the presence of 30 μM ATP ATP for 17 h (MKK7) or 4 h (MKK4).

pJNK in HEK293 cells = test: In-cell western (ICW) pJNK inhibition in HEK293; format: cell-based; conditions: Homo sapiens, HEK293, HEK293, ICW, 2 h pre-incubation, sorbitol stimulation
Protocol: (§1) HEK293, Beas2B and 3T3 cells were plated 24 hours before procedure on 384 well clear bottom black flat plates (Corning) pre-coated with Fibronectin (Sigma) diluted in PBS to a concentration of 5 μg/ml 45 minutes prior to cells introduction. Cells were plated using Multidrop™ Combi reagent dispenser (Thermo Fisher Scientific). Compound, reagents and antibody dispensing as well as washes were performed with a CyBio liquid handler (Analytik). Cells were pre-incubated with a small molecule or up to 1% DMSO for 2 h before fixation. HEK293, 3T3 or Beas2B cells were treated with 0.6M/0.2M/0.2M D-Sorbitol/PBS (Sigma) for 20/40/40 min. respectively, before fixation. Media was removed and wells were immediately fixed with 150 μl per well of 3.7% formaldehyde/PBS fixing solution for 20 min. Formaldehyde was then aspired and cells were permeabilized with 150 μl of 0.5% Triton x-100/PBS solution for 10 min. After aspiration cells were washed with ice-cold methanol and stored at −20° C., for 10 min. Methanol was aspired and cells were blocked with 150 μl blocking buffer (LICOR) for 90 min. Primary antibody Phospho-SAPK/JNK T183/Y185 (CST; 9251S) was diluted 1:1000 in blocking buffer and was applied 50 μl per well, except control wells to which only blocking buffer was applied, O.N. (16 h) at 4° C. with mild shaking. Primary antibody was aspired, wells were washed with 150 μl 0.1% Tween20/PBS (Sigma) washing solution three times for 7 min. IRDye® 800CW Goat anti-Rabbit IgG Secondary antibody (LICOR) was then diluted 1:1200 in blocking buffer with 50 μl applied per well on control wells only (no CellTag control), then CellTag700 (1:2000) was added to the solution and 50 μl were added to all experiment wells, for 1 h at room temperature. Wells were aspired and washed again with 150 μl 0.1% Tween20/PBS (Sigma) washing solution three times for 7 min. plate was dried and scanned with Odyssey CLx imaging system at 700 nm and 800 nm (Licor). Wells signals were analyzed with Odyssey software. The signal was normalized by the CellTag700 signal.
(§2) To rapidly assess the cellular activity (EC50) with full dose response curves of the MKK7 covalent inhibitors, according to some embodiments of the present invention, an in-cell western assay was adapted to a 384 well plate format over traditional western blot, and monitored phospho-JNK (pJNK) levels in response to osmotic shock. We first characterized the dynamics of pJNK in response to sorbitol. Sufficient dynamic range for pJNK is achieved at 20 minutes in HEK293 cells and at 40 minutes in 3T3 and Beas2B cells. The compound's activity was assessed by pre-treating cells with either compound or DMSO for 2 hours, followed by Sorbitol stimulation. The response of pJNK, and its substrates, pc-Jun and pATF2, was measured, as well as pP38, which is a substrate of MKK4 but not MKK7, and pERK in HEK293 cells, and the results are presented in Table 5 below.

[1] = Metabolic stability in mouse liver microsomes; format: in vitro ADME; conditions: for half-life: mouse, liver microsomes
Text: (§3) A reference compound, REF1250, was used in this study: […]

[2] = Metabolic stability in rat liver microsomes; format: in vitro ADME; conditions: for half-life: rat, liver microsomes
Text: as §3

[3] = Metabolic stability in dog liver microsomes; format: in vitro ADME; conditions: for half-life: dog, liver microsomes
Text: as §3

[4] = Metabolic stability in monkey liver microsomes; format: in vitro ADME
Text: as §3

[5] = Metabolic stability in human liver microsomes; format: in vitro ADME; conditions: for half-life: human, liver microsomes
Text: as §3

pJNK in 3T3 WT cells = test: In-cell western (ICW) pJNK inhibition in 3T3 WT; format: cell-based; conditions: for EC50: 3T3 WT, ICW, 2 h pre-incubation, sorbitol stimulation
Protocol: as §1, §2
Wildtype 3T3 cells, 3T3 MKK7 double knock-out (MKK7^−/−) cells and MKK4/7 double knockouts (MKK4/7^−/−) were used to validate on target activity of the MKK7 covalent inhibitors presented herein.

Row | Structure (SMILES) | IC50 (MKK7) [µM] | % remaining @ 40 min [1] | half-life [1] [min] | % remaining @ 40 min [2] | half-life [2] [min] | % remaining @ 40 min [3] | % remaining @ 40 min [4] [%] | % remaining @ 40 min [5] | half-life [5] [min] | EC50 (pJNK in HEK293 cells) [µM] | further results
1 | C=CC(=O)Nc1cccc2[nH]ncc12 [GO1] | > 10 |  |  |  |  |  |  |  |  |  | 
2 | C=CC(=O)NC1CCC(c2nc(-c3ccccc3)n[nH]2)CC1 (centres unmarked) [GO2] | > 10 |  |  |  |  |  |  |  |  |  | 
3 | C=CC(=O)Nc1ccc(N2CCNC2=O)cc1 [GO5] | 0.502 |  |  |  |  |  |  |  |  |  | 
4 | C=CC(=O)N1CCC(c2c[nH]c3ncccc23)CC1 [GO6] | > 10 |  |  |  |  |  |  |  |  |  | 
5 | C=CC(=O)Nc1ccc2c(c1)C(=O)NC2 [GO7] | 0.873 |  |  |  |  |  |  |  |  |  | 
6 | C=CC(=O)NCC1CCCN(c2cc(NC)ncn2)C1 (centres unmarked) [GO8] | > 10 |  |  |  |  |  |  |  |  |  | 
7 | C=CC(=O)NCC1CCCN1c1cc(NC)ncn1 (centres unmarked) [GO9] | > 10 |  |  |  |  |  |  |  |  |  | 
8 | C=CC(=O)N1CCN(CC2=NC(C)N=N2)CC1 (centres unmarked) [GO10] | > 10 |  |  |  |  |  |  |  |  |  | 
9 | C=CC(=O)N1CCOC(c2nc(CCC)n[nH]2)C1 (centres unmarked) [GO14] | > 10 |  |  |  |  |  |  |  |  |  | 
10 | C=CC(=O)N[C@H]1CCCN(c2[nH]nc3ccccc23)C1 [PCM531] |  |  |  |  |  |  |  |  |  | > 10 | activity in ICW in 3T3 cells (pJNK in 3T3 WT cells): inactive
11 | C=CC(=O)Nc1cc(C(=O)N(C)C)cc(-c2n[nH]c3ccccc23)c1 [PCM549] |  |  |  |  |  |  |  |  |  |  | EC50 (pJNK in 3T3 WT cells): > 10 µM
12 | COc1cc(OC)cc(C(C#N)(CCCN(C)CCc2ccc(OC)c(OC)c2)C(C)C)c1 (centres unmarked) [REF1250, reference compound] |  | 2% and 1% | 7 | 3% and 1% | 8 | 12% and 5% | 0 | 5% and 3% | 9 |  | Halflife [1]: 6 min; Halflife [2]: 6 min; half-life [3]: 12 min; half-life [4]: < 5 min

More lines, main results first:

Row | IC50 (MKK7) [µM] | % remaining @ 40 min [1] | half-life [1] [min] | % remaining @ 40 min [2] | half-life [2] [min] | % remaining @ 40 min [3] | % remaining @ 40 min [4] [%] | % remaining @ 40 min [5] | half-life [5] [min] | Structure (SMILES) | EC50 (pJNK in HEK293 cells) [µM] | further results
13 | 0.027 |  |  |  |  |  |  |  |  | C=CC(=O)Nc1cccc(-c2n[nH]c3c([N+](=O)[O-])cccc23)c1 [GO29] | > 10 | 
14 | 0.073 |  |  |  |  |  |  |  |  | C=CC(=O)Nc1cccc(-c2n[nH]c3c2CCC3)c1 [GO49] |  | 
15 | 0.01 | 18% | 11 | 4% | 8 | 1% | 1 | 20% | 16 | C=CC(=O)Nc1cccc(-c2n[nH]c3c2CC(C)(C)CC3)c1 [GO54] | 3.3 | half-life [3]: 6 min; half-life [4]: 5 min
16 | 0.064 | 4% | 8 | 40% | 29 | 6% | 0 | 13% | 13 | C=CC(=O)Nc1cccc(-c2n[nH]c3c2COCC3)c1 [GO55] | > 10 | half-life [3]: 9 min; half-life [4]: < 5 min
17 | 0.193 |  |  |  |  |  |  |  |  | C=CC(=O)Nc1cccc(-c2n[nH]c3c2CN(C(=O)OC(C)(C)C)CC3)c1 [GO61] | > 10 | 
18 | 2.46 |  |  |  |  |  |  |  |  | C=CC(=O)Nc1cccc(-c2n[nH]c3c2CNCC3)c1 [GO64] | > 10 | 
19 | 0.03 |  |  |  |  |  |  |  |  | C#CCCCC(=O)N1CCc2[nH]nc(-c3cccc(NC(=O)C=C)c3)c2C1 [GO65] |  | 
20 | 0.026 | 0% | < 5 | 0% | < 5 | 0% | 0 | 11% | 12 | C=CC(=O)Nc1cc(-c2n[nH]c3ccccc23)ccc1C [GO72] | 4.2 | half-life [3]: < 5 min; half-life [4]: < 5 min
21 | 0.004 | 0% | < 5 | 0% | < 5 | 0% | 0 | 0% | < 5 | C=CC(=O)Nc1cc(C#N)cc(-c2n[nH]c3ccccc23)c1 [GO73] |  | half-life [3]: < 5 min; half-life [4]: < 5 min
22 | 0.267 |  |  |  |  |  |  |  |  | CN(C)C/C=C/C(=O)Nc1cccc(-c2n[nH]c3ccccc23)c1 [GO74] |  | 
23 | 0.812 |  |  |  |  |  |  |  |  | C=CC(=O)Nc1cccc(-c2n[nH]c3c(C)cccc23)c1 [GO81] |  | 
24 | 0.011 | 0% | 5 | 48% | 35 | 0% | 0 | 1% | < 5 | C=CC(=O)Nc1cccc(-c2n[nH]c3cc(OC)ccc23)c1 [GO83] |  | half-life [3]: < 5 min
25 | 0.004 | 0% | < 5 | 2% | 7 | 0% | 0 | 0% | < 5 | C=CC(=O)Nc1cccc(-c2n[nH]c3c(F)cccc23)c1 [GO88] | 1.8 | half-life [3]: < 5 min; half-life [4]: < 5 min
26 | 0.047 | 0% | < 5 | 1% | 6 | 0% | 0 | 3% | 8 | C=CC(=O)Nc1cccc(-c2n[nH]c3c(Cl)cccc23)c1 [GO89] |  | half-life [4]: < 5 min
27 | 0.011 |  |  |  |  |  |  |  |  | C=CC(=O)Nc1cccc(-c2n[nH]c3cc(-c4ccccc4)ccc23)c1 [GO101] | 1 | 
28 | 0.005 | 0% | < 5 | 17% | 16 | 0% | 0 | 0% | < 5 | C=CC(=O)Nc1cccc(-c2n[nH]c3cc(Cl)ccc23)c1 [GO106] | 3 | half-life [3]: < 5 min; half-life [4]: < 5 min
29 |  | 100% |  | 61% |  | 100% | 100 | 100% |  | C=CC(=O)Nc1cc(C(=O)O)cc(-c2n[nH]c3ccccc23)c1 [PCM476] |  | EC50 (pJNK in 3T3 WT cells): > 10 µM; activity in ICW in 3T3 cells (pJNK in 3T3 WT cells): inactive; Halflife [1]: >40 min; Halflife [2]: >40 min; Halflife [3]: >40 min; Halflife [4]: >40 min; Halflife [5]: >40 min; Halflife ([5]; listed as PCM76): more than 40 min

From patent US20210238173A1, “MITOGEN-ACTIVATED PROTEIN KINASE KINASE 7 INHIBITORS” (Yeda Research and Development Co. Ltd., priority 2018, published 2021)
